Values after ≈ are worked out from the molar mass of the structure shown.

Results on 6 compounds are retold here after patent EP0324390A2, “Nigericin derivatives, method for their preparation, compositions containing them and use of these compositions” (priority 1988, dated 1989).

Assay type in all cases: cell-based
The test system of one assay is Testviren. Put plainly: Antiviral activity in cell culture (CPE, HeLa or Vero cells). As to conditions: cell cultures infected with test viruses; qualitative statement.
In another assay the test system is Staph. aureus (285). The experiment in a line: Agar dilution test according to Lorian (antibacterial activity). As for the experimental part: (§1) Die antibakterielle Wirksamkeit der erfindungsgemäßen Verbindungen wurde im Agar-Verdünnungstest nach Lorian (Antibiotics in Laboratory Medicine, Williams & Wilkins, Baltimore/London, 1980) bestimmt. Dabei wurden die Präparate in einer geometrischen Verdünnungsreihe mit dem Faktor 2 in Müller Hinton Agar verdünnt. Eine Petrischale enthielt nur Müller Hinton Agar und diente zur Kontrolle des Bakterienwachstums. Die Petrischalen wurden dann mit einem Denley-Multipoint-Inokulator, welcher 0,6 ul einer 1 : 100 verdünnten 18-Stunden-Kultur der Testbakterien übertrug, mit den entsprechenden Testbakterien beimpft. Nach 16 bis 18 Stunden Inkubation bei 37^. C wurden die Petrischalen makroskopisch auf Bakterienwachstum untersucht.
(§2) Die niedrigste Konzentration der erfindungsgemäßen Verbindungen, welche das Bakterienwachstum noch vollständig verhinderte, wurde als MIC (Minimum Inhibitory Concentration) angenommen.
(§3) In Tabelle 4 ist die Wirkung (Angabe des MIC in µg/ml) von verschiedenen erfindungsgemäßen Verbindungen gegen folgende Bakterien aufgeführt: • Staph. aureus (SG 511), Staph. aureus (285), Staph. aureus (503), Strept. pyogenes (308 A), Strept pyogenes (77 A), Strept. faecium (D).

In a further assay the test system is Staph. aureus (503). The assay is described as above. The method, then: as §1, §2, §3
Another assay relates to Staph. aureus (SG 511). Described as above. The method, then: as §1, §2, §3
A further assay concerns Strept. faecium (D). Described as above. The method, then:
as §1, §2, §3

In another assay the test system is E. coli (DC 2). The experiment in a line: Antibacterial activity against gram-negative bacteria. As to conditions: Escherichia coli, read-out: MHK. The method, then: as §1, §2
(§4) Überraschend zeigen die Dicarbonsäure-Addukte des Nigericins auch eine Wirkung gegen gramnegative Bakterien. So besitzt beispielsweise die Substanz aus Beispiel 32 gegen E. coli eine MHK von 0,55 µg/ml, gegen E. coli (DC 2) eine MHK von 25,0 µg/ml und gegen Entrob. Cloacae (1321 E) eine MHK von 250 µg/ml.

The subject of a further assay is E. coli. The description is as above. The conditions noted are these: Escherichia coli, read-out: MHK. As for the experimental part: as §1, §2, §4
In another assay the test system is Entrob. Cloacae (1321 E). Described as above. The conditions noted are these: Enterobacter cloacae, read-out: MHK. The method, then:
as §1, §2, §4

For another assay, the system named is Strept. pyogenes (308 A). Put plainly: Agar dilution test according to Lorian (antibacterial activity). The method, then:
as §1, §2, §3

Another assay relates to Strept. pyogenes (77 A). The assay is described as above. The method, then:
as §1, §2, §3

[1] abbreviates: Müller Hinton Agar, 16 to 18 h at 37 C, lowest concentration fully preventing growth.

For `CO[C@@H]1C[C@@H](C[C@H]2CC[C@H](C)[C@H]([C@@H](C)C(=O)O)O2)O[C@]2(O[C@](C)([C@H]3CC[C@@](C)([C@@H]4O[C@@H]([C@H]5O[C@@](O)(CO)[C@H](C)C[C@@H]5C)C[C@@H]4C)O3)C[C@H]2C)[C@@H]1C` [Beispiel 1, Nigericin], the “antivirale Wirkung” value with Testviren is reported as “ausgezeichnete antivirale Wirkung”.

Regarding `COC1CC(CC2CCC(C)C(C(C)C(=O)O)O2)OC2(OC(C)(C3CCC(C)(C4OC(C5OC(O)(COC(=O)CCCC(=O)O)C(C)CC5C)CC4C)O3)CC2C)C1C` (centres unmarked) [Beispiel 32], the MIC was determined as 0.39 µg/mL (≈ 0.465 µM) in the assay with Staph. aureus (285) (Staphylococcus aureus); 0.39 µg/mL (≈ 0.465 µM) in the assay with Staph. aureus (503) (Staphylococcus aureus); 0.39 µg/mL (≈ 0.465 µM) with Staph. aureus (SG 511) (Staphylococcus aureus); 0.39 µg/mL (≈ 0.465 µM) with Strept. faecium (D) (Enterococcus faecium); 25 µg/mL (≈ 29.8 µM) in the assay on E. coli (DC 2); 0.55 µg/mL (≈ 0.655 µM) with E. coli. Also, in the assay with Entrob. Cloacae (1321 E), the MIC came to 250 µg/mL (≈ 298 µM).

`COC1CC(CC2CCC(C)C(C(C)C(=O)O)O2)OC2(OC(C)(C3CCC(C)(C4OC(C5OC(O)(COC(=O)Nc6ccc(Cl)cc6)C(C)CC5C)CC4C)O3)CC2C)C1C` (centres unmarked) [Beispiel 14]: the MIC with Staph. aureus (285) (setting [1]) was 100,0 µg/ml; in the assay on Staph. aureus (503) (setting [1]), 50,0 µg/ml; in the assay on Staph. aureus (SG 511) (setting [1]), 100,0 µg/ml; against Strept. faecium (D) (setting [1]), 100,0 µg/ml; against Strept. pyogenes (308 A) (setting [1]) it was 25,0 µg/ml; against Strept. pyogenes (77 A) (setting [1]), 12,5 µg/ml.

As to `COC1CC(CC2CCC(C)C(C(C)C(=O)O)O2)OC2(OC(C)(C3CCC(C)(C4OC(C5OC(O)(COC(=O)C=C(C)C(=O)O)C(C)CC5C)CC4C)O3)CC2C)C1C` (centres unmarked) [Beispiel 22], the MIC in the assay with Staph. aureus (285) (Staphylococcus aureus) turned out to be 6.25 µg/mL (≈ 7.47 µM); in the assay on Staph. aureus (503) (Staphylococcus aureus), 6.25 µg/mL (≈ 7.47 µM); in the assay with Staph. aureus (SG 511) (Staphylococcus aureus) it was 6.25 µg/mL (≈ 7.47 µM); against Strept. faecium (D) (Enterococcus faecium), 6.25 µg/mL (≈ 7.47 µM); against Strept. pyogenes (308 A) (Streptococcus pyogenes) it was 0.78 µg/mL (≈ 0.932 µM); with Strept. pyogenes (77 A) (Streptococcus pyogenes) it was 0.78 µg/mL (≈ 0.932 µM).

Turning to `COC1CC(CC2CCC(C)C(C(C)C(=O)O)O2)OC2(OC(C)(C3CCC(C)(C4OC(C5OC(O)(COC(C)=O)C(C)CC5C)CC4C)O3)CC2C)C1C` (centres unmarked) [Beispiel 5], the MIC in the assay on Staph. aureus (285) (setting [1]) is given as 0,391 µg/ml; with Staph. aureus (503) (setting [1]), 0,391 µg/ml; with Staph. aureus (SG 511) (setting [1]), 0,391 µg/ml; against Strept. faecium (D) (setting [1]), 0,781 µg/ml; in the assay on Strept. pyogenes (308 A) (setting [1]), 0,098 µg/ml; in the assay with Strept. pyogenes (77 A) (setting [1]), 0,098 µg/ml.

As for `COC1CC(CC2CCC(C)C(C(C)C(=O)O)O2)OC2(OC(C)(C3CCC(C)(C4OC(C5OC(O)(COC(=O)CCC(=O)O)C(C)CC5C)CC4C)O3)CC2C)C1C` (centres unmarked) [Beispiel 11], the MIC in the assay on Staph. aureus (285) (setting [1]) is on record as 0,195 µg/ml; against Staph. aureus (503) (setting [1]), 0,098 µg/ml; with Staph. aureus (SG 511) (setting [1]), 0,391 µg/ml; in the assay with Strept. faecium (D) (setting [1]) it was 0,391 µg/ml; with Strept. pyogenes (308 A) (setting [1]), 0,025 µg/ml; in the assay with Strept. pyogenes (77 A) (setting [1]), 0,025 µg/ml.
